Measured values published in ChEMBL document CHEMBL1821558, “Toward potent α-glucosidase inhibitors based on xanthones: a closer look into the structure-activity correlations” (Eur J Med Chem, 2011).
Calls of active or inactive are those of the source. The calls are words filed in the database; no cut-off is given here.

Tests used:
[1] = Inhibition of yeast alpha-glucosidase using PNP glycoside as substrate after 30 mins by spectrophotometry; design: species or system Saccharomyces cerevisiae
[2] = system: Saccharomyces cerevisiae; test: Ratio of 1,3-dihydroxy-7-methyl-9H-xanthen-9-one IC50 to compound IC50 for yeast alpha-glucosidase
[3] = system: Saccharomyces cerevisiae; test: Ratio of 1,3-dihydroxy-9H-xanthen-9-one IC50 to compound IC50 for yeast alpha-glucosidase
[4] = Non competitive inhibition of yeast alpha-glucosidase using PNP glycoside as substrate preincubated for 30 mins by Lineweaver-Burk plot analysis; design: species or system Saccharomyces cerevisiae
[5] = system: Saccharomyces cerevisiae; test: Non competitive inhibition of yeast alpha-glucosidase using PNP glycoside as substrate at 34.8 uM preincubated for 30 mins by Lineweaver-Burk plot analysis
[6] = system: Saccharomyces cerevisiae; test: Ratio of 1,3,6-trihydroxy-9H-xanthen-9-one IC50 to compound IC50 for yeast alpha-glucosidase
[7] = system: Saccharomyces cerevisiae; test: Non competitive inhibition of yeast alpha-glucosidase using PNP glycoside as substrate at 15.3 uM preincubated for 30 mins by Lineweaver-Burk plot analysis
[8] = system: Saccharomyces cerevisiae; test: Ratio of 1,3,6,8-tetrahydroxy-9H-xanthen-9-one IC50 to compound IC50 for yeast alpha-glucosidase
[9] = system: Saccharomyces cerevisiae; test: Non competitive inhibition of yeast alpha-glucosidase using PNP glycoside as substrate at 25.4 uM preincubated for 30 mins by Lineweaver-Burk plot analysis

Row | IC50 [1] [µM] | SMILES | other results
1 | > 200 | Cc1ccc2oc3cc(O)cc(O)c3c(=O)c2c1 | 
2 | 161 | O=c1c2ccccc2oc2cc(O)cc(O)c12 | 
3 | 26.5 | Cc1ccc2oc3cc(O)c(-c4c(O)ccc5ccccc45)c(O)c3c(=O)c2c1 | Ratio IC50 [2]: 2
4 | 6.4 | Cc1ccc2oc3c(-c4c(O)ccc5ccccc45)c(O)c(-c4c(O)ccc5ccccc45)c(O)c3c(=O)c2c1 | 
5 | 41.5 | O=c1c2ccc(O)cc2oc2cc(O)cc(O)c12 | 
6 | 47.7 | O=c1c2ccccc2oc2cc(O)c(-c3c(O)ccc4ccccc34)c(O)c12 | Ratio IC50 [3]: 2
7 | 10.1 | O=c1c2ccccc2oc2c(-c3c(O)ccc4ccccc34)c(O)c(-c3c(O)ccc4ccccc34)c(O)c12 | 
8 | 40 | OC[C@H]1NC[C@H](O)[C@@H](O)[C@@H]1O [DUVOGLUSTAT] | 
9 | 17.2 | O=c1c2c(O)cc(O)cc2oc2cc(O)cc(O)c12 | Ki [4]: 62.8 µM; inhibition [5]: Active
10 | 10.5 | O=c1c2ccc(O)cc2oc2cc(O)c(-c3c(O)ccc4ccccc34)c(O)c12 | Ratio IC50 [6]: 2
11 | 6.2 | O=c1c2ccc(O)cc2oc2c(-c3c(O)ccc4ccccc34)c(O)c(-c3c(O)ccc4ccccc34)c(O)c12 | 
12 | 75.4 | O=c1c2ccccc2oc2cc(O)c(-c3c(O)ccc4ccc(O)cc34)c(O)c12 | 
13 | 8.1 | O=c1c2c(O)cc(O)cc2oc2cc(O)c(-c3c(O)ccc4ccccc34)c(O)c12 | Ki [4]: 29.2 µM; inhibition [7]: Active; Ratio IC50 [8]: 2
14 | 112 | Cc1ccc2oc3cc(O)c(-c4c(O)ccc5ccc(O)cc45)c(O)c3c(=O)c2c1 | 
15 | 17.4 | O=c1c2c(O)cc(O)cc2oc2cc(O)c(-c3c(O)ccc4ccc(O)cc34)c(O)c12 | Ki [4]: 50.9 µM; inhibition [9]: Active
16 | 47.6 | O=c1c2ccc(O)cc2oc2cc(O)c(-c3c(O)ccc4ccc(O)cc34)c(O)c12 | 
